Test results from patent US20240254095A1, “NMDA Receptor Antagonist and Use Thereof” (priority 2021, published 2024).
“Also recorded” adds a separate entry of the source. Counter-ions that a name gives are not always drawn. Like-named read-outs stand apart in the source and are kept apart here.

How the values were obtained:
[1] = target: T1, human NMDA receptors GluN1 and GluN2A subunits (GluN2A-containing NMDAR) (Homo sapiens, UniProt Q05586+Q12879); test: cell-based
T1 construct: expressed in transfected cells; host or cells: HEK293 cells, transient liposome transfection of TRE-GluN1-GluN2A, tTA and pCAG-EGFP
Protocol: On the day before transfection, HEK293 cells were seeded in a 24-well plate with a 10 mm glass sheet, which was coated with polylysine in advance to increase the adhesion capacity of the cells. The plate was added with DMEM medium containing 10% FBS and incubated at 37° C., in 5% CO2 incubator. When the cell fusion reached 60%-70% after 18-24 hours, the plasmid cDNAs containing TRE-GluN1-GluN2A of human GluN1 and GluN2A, tTA, and pCAG-EGFP were transfected into HEK293 by liposome transfection (TRE-GluN1-GluN2A:tTA:pCAG-EGFP is 0.2 μg:0.2 μg:0.02 μg). Before transfection, anew DMEM medium was changed and added with 1 μg/mL Dox (doxycycline) to induce stable expression in the medium, and added with 100 μM D-APV and 10 mM MgCl2 to avoid cell excitatory toxicity caused by NMDAR overexpression. Cells with green fluorescence were selected for electrophysiological recording after transfection for about 24 h.
A glass plate seeded with HEK293 cells was placed in a recording bath and perfused with the extracellular fluid at a rate of 4 mL/min (NaCl 140 mM, KCl 2.8 mM, HEPES 10 mM, CaCl2 1 mM, glycine 0.1 mM, pH 7.2). The channels of the ALA-VC^3 eight-channel pressure perfusion system were filled with extracellular fluid for washing, extracellular fluid containing glutamic acid (100 μM), and extracellular fluid containing glutamic acid and compound to be tested, respectively, with a drop rate of about 1 drop/sec and 10 μL/drop. HEK293 cells with moderate green fluorescence intensity and good adhesion were selected under a fluorescence microscope for recording. The microglass tube of the perfusion system was placed about ten cells away from the cells to be recorded, and the drug was sprayed to the cell surface under the pressure of air (0.02 MPa). The glass electrode was prepared by drawing with a microelectrode drawing instrument with a resistance of 4-6 MΩ and filled with electrode liquid (CsCl 125 mM, HEPES 10 mM, EGTA 11 mM). The microelectrode manipulator was used to slowly push the glass electrode towards the cells. The electrode was attached to the cell membranes and applied with negative pressure, so that a high-resistance seal of more than 1 GΩ was formed between the electrode tip and the cell membrane, and then negative pressure was given to suck through the cell membrane to form a whole-cell recording mode. After the formation of whole-cell recording mode, the cell membrane potential was clamped at −70 mV. The extracellular fluid containing 100 μM glutamic acid, the extracellular fluid containing 100 μM glutamic acid and the compound to be tested, and the extracellular fluid were sprayed to the cell membrane surface sequentially through the perfusion system for 10 s, 20 s, and 10 s to record the NMDA receptor-mediated current and evaluate the inhibitory effect of the compound on GluN2A-containing NMDAR. The experimental process was controlled by pCLAMP 10.6, and the Digidata 1440A digital-to-analog converter was used to complete the generation of stimulus signal and the acquisition of feedback signal.
The ordinate in the figure is the normalized current ratio, which represents the ratio of the current mediated by NMDAR after administration of ketamine and the compound at a concentration of 10 μM to the current mediated by NMDAR before administration. […] Ketamine was used as a positive control.
The inhibitory percentages of the compound according to the present disclosure on NMDAR-mediated current=[…]/NMDAR mediated-current before administration*100%.

mice = test: High dose toxicity test (behavior of mice after i.p. administration); type: in vivo; conditions: medium dose 100 mg/kg body weight, observed about one hour, hydrochloride, 100 mg/kg
Protocol: • 1. Experiments were performed in a quiet environment where animals needed to be weighed and acclimatized in the laboratory room for at least 30 min before the experiment. • 2. The compound to be tested was dissolved with 0.9% physiological saline at a concentration of 10 mg/ml. According to the body weight of mice, a corresponding volume of the compound was intraperitoneal injected (i.p.), so as to provide the target dose. • 3. The mice after administration were placed in transparent observation boxes, and the behavioral changes of the mice were recorded by video and observed for about one hour. (Note: During the observation period, if a mouse was lying still on the stomach, the mouse was turned over with your hand to check whether the righting reflex (RR) of the mouse disappeared. If it disappeared, the mouse was in the state of anesthesia, the time of anesthesia in the mouse was recorded). • 4. After one hour of observation, the mice were returned to the feeding cage and the observation boxes were wiped with 75% alcohol so that the information left over from the previous round (e.g. animal stool, urine and other odors) would not affect the next test results. Animals were replaced for the next round to continue the experiment.
Mice died after ketamine administration.
According to Rodent Epileptiform Behavior Scale score, Compound 9 induced epileptiform behavior in mice with a maximum score of 3. […] According to the Rodent Epileptiform Behavior Scale score. Compound 41 and 42 induced epileptiform behavior in mice with a maximum score of 1. […] The epileptiform behavior was scored according to the Rodent Epileptiform Behavior Scale score.

[2] = NMDAR-mediated current, HEK293 cells expressing human GluN1/GluN2A, 100 μM glutamic acid, clamped at −70 mV, compound 10 μM, read-out: current inhibitory percentages

T1 sequence (Q12879 23-1464, other chains not shown): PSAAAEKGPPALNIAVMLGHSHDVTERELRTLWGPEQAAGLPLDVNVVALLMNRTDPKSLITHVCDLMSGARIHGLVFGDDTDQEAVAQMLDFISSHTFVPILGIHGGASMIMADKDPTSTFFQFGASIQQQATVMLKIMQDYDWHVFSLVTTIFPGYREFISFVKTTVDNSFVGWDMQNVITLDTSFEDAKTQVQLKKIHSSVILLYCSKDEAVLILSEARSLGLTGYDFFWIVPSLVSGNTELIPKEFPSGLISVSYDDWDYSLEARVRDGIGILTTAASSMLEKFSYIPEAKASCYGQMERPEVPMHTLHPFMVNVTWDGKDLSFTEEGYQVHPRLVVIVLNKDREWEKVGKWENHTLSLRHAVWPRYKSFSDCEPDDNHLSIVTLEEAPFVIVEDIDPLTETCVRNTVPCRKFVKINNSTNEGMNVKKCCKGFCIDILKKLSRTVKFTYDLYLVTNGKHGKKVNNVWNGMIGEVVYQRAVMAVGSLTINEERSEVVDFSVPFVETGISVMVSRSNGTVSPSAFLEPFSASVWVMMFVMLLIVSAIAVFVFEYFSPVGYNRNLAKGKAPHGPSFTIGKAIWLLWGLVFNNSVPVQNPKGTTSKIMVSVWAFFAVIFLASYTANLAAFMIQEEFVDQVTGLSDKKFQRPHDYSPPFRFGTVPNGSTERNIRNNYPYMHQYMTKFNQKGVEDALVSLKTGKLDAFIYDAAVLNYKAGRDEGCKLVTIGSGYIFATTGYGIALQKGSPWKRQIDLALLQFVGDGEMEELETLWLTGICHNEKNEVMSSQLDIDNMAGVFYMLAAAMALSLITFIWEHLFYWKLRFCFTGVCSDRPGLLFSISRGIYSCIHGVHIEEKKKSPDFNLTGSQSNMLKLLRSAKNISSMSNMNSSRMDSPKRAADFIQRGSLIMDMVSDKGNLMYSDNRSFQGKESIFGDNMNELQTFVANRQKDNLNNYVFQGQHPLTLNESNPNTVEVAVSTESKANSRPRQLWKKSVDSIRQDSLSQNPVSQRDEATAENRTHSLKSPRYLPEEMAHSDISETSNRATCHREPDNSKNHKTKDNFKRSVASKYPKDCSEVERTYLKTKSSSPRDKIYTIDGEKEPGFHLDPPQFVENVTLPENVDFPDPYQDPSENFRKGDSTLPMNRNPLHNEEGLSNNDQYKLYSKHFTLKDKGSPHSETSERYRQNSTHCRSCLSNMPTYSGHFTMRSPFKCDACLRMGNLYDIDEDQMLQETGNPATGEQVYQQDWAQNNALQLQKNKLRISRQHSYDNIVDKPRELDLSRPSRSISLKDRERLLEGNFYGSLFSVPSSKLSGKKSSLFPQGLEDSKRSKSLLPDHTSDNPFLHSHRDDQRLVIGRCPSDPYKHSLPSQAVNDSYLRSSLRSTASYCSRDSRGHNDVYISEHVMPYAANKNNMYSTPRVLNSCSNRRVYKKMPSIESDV

| SMILES | inhibition at 10 µM [1, 2] [%] | also measured |
| --- | --- | --- |
| c1ccc(C23CCCCC2OCCN3)cc1 (centres unmarked) [Compound 1, 4a-phenyloctahydro-2H-benzo[b][1,4]oxazine hydrochloride] | 115 | – |
| COc1ccccc1C12CCCCC1OCCN2 (centres unmarked) [Compound 2, 4a-(2-methoxyphenyl)octahydro-2H-benzo[b][1,4]oxazine hydrochloride] | 56 | – |
| Fc1cccc(C23CCCCC2OCCN3)c1 (centres unmarked) [Compound 3, 4a-(3-fluorophenyl)octahydro-2H-benzo[b][1,4]oxazine hydrochloride] | 21.2 | – |
| Fc1ccc(C23CCCCC2OCCN3)cc1 (centres unmarked) [Compound 4, 4a-(4-fluorophenyl)octahydro-2H-benzo[b][1,4]oxazine formate] | 83.7 | – |
| Fc1cccc(C23CCCCC2OCCN3)c1F (centres unmarked) [Compound 5, 4a-(2,3-difluorophenyl)octahydro-2H-benzo[b][1,4]oxazine formate] | 54.5 | – |
| CC1CCC2OCCNC2(c2ccccc2)C1 (centres unmarked) [Compound 7, 6-methyl-4a-phenyloctahydro-2H-benzo[b][1,4]oxazine formate] | 86.4 | – |
| CCC1CCC2OCCNC2(c2ccccc2)C1 (centres unmarked) [Compound 8, 6-ethyl-4a-phenyloctahydro-2H-benzo[b][1,4]oxazine formate] | 28.9 | – |
| Cc1cccc(C23CCCCC2OCCN3)c1 (centres unmarked) [Compound 10, 4a-(3-methylphenyl)octahydro-2H-benzo[b][1,4]oxazine formate] | 98.3 | – |
| Cc1ccccc1C12CCCCC1OCCN2 (centres unmarked) [Compound 12, 4a-(2-methylphenyl)octahydro-2H-benzo[b][1,4]oxazine formate] | 33.7 | – |
| Cc1ccc(C23CCCCC2OCCN3)cc1 (centres unmarked) [Compound 14, 4a-(4-methylphenyl)octahydro-2H-benzo[b][1,4]oxazine formate] | 45.2 | – |
| CC1CCCC2(c3ccccc3)NCCOC12 (centres unmarked) [Compound 16, 8-methyl-4a-phenyloctahydro-2H-benzo[b][1,4]oxazine formate] | 107 | – |
| CC1CCCC2OCCNC12c1ccccc1 (centres unmarked) [Compound 17, 5-methyl-4a-phenyloctahydro-2H-benzo[b][1,4]oxazine formate] | 86.6 | – |
| CC1CCC2(c3ccccc3)NCCOC2C1 (centres unmarked) [Compound 18, 7-methyl-4a-phenyloctahydro-2H-benzo[b][1,4]oxazine formate] | 84.4 | – |
| CN1CCOC2CCCCC21c1ccccc1 (centres unmarked) [Compound 19, 4-methyl-4a-phenyloctahydro-2H-benzo[b][1,4]oxazine hydrochloride] | 17.8 | – |
| CC1(C)CNC2(c3ccccc3)CCCCC2OC1.Cl (centres unmarked) [Compound 20, 3,3-dimethyl-5a-phenyldecahydrobenzo[b][1,4]olanzapine hydrochloride] | – | current inhibitory percentages [1]: 64.86% |
| COc1cccc(C23CCCCC2OCCN3)c1 (centres unmarked) [Compound 21, 4a-(3-methoxyphenyl)octahydro-2H-benzo[b][1,4]oxazine hydrochloride] | 71.5 | – |

| SMILES | inhibition at 10 µM [1, 2] [%] | also measured |
| --- | --- | --- |
| FC(F)(F)Oc1cccc(C23CCCCC2OCCN3)c1 (centres unmarked) [Compound 22, 4a-(3-(trifluoromethoxy)phenyl)octahydro-2H-benzo[b][1,4]oxazine hydrochloride] | 45.8 | – |
| FC(F)(F)c1ccc(C23CCCCC2OCCN3)cc1 (centres unmarked) [Compound 23, 4a-(4-(trifluoromethyl)phenyl)octahydro-2H-benzo[b][1,4]oxazine hydrochloride] | 9.25 | – |
| Cc1cccc(C)c1C12CCCCC1OCCN2 (centres unmarked) [Compound 24, 4a-(2,6-dimethylphenyl)octahydro-2H-benzo[b][1,4]oxazine hydrochloride] | 73.7 | – |
| CC(C)(C)c1ccc(C23CCCCC2OCCN3)cc1 (centres unmarked) [Compound 25, 4a-(4-(tertbutyl)phenyl)octahydro-2H-benzo[b][1,4]oxazine hydrochloride] | 11.2 | – |
| Clc1cccc(C23CCCCC2OCCN3)c1Cl (centres unmarked) [Compound 26, 4a-(2,3-dichlorophenyl)octahydro-2H-benzo[b][1,4]oxazine hydrochloride] | 92 | – |
| CC(C)c1ccccc1C12CCCCC1OCCN2 (centres unmarked) [Compound 27, 4a-(2-isopropylphenyl)octahydro-2H-benzo[b][1,4]oxazine hydrochloride] | 85.6 | – |
| Cc1ccc(C)c(C23CCCCC2OCCN3)c1 (centres unmarked) [Compound 28, 4a-(2,5-dimethylphenyl)octahydro-2H-benzo[b][1,4]oxazine hydrochloride] | 87.8 | – |
| Fc1cccc(C23CCCCC2OCCN3)c1Cl (centres unmarked) [Compound 29, 4a-(2-chloro-3-fluorophenyl)octahydro-2H-benzo[b][1,4]oxazine hydrochloride] | 85.7 | – |
| Fc1ccc(C23CCCCC2OCCN3)cc1F (centres unmarked) [Compound 30, 4a-(3,4-difluorophenyl)octahydro-2H-benzo[b][1,4]oxazine hydrochloride] | 86.6 | – |
| CC1(C)CCC2OCCNC2(c2ccccc2)C1 (centres unmarked) [Compound 31, 6,6-dimethyl-4a-phenyloctahydro-2H-benzo[b][1,4]oxazine hydrochloride] | – | inhibition at 10 µM ([1]; HEK293, read-out: current inhibitory percentages): 71.6% |
| Fc1ccc(Cl)c(C23CCCCC2OCCN3)c1 (centres unmarked) [Compound 32, 4a-(2-chloro-5-fluorophenyl)octahydro-2H-benzo[b][1,4]oxazine hydrochloride] | 102 | – |
| CCOc1cccc(C23CCCCC2OCCN3)c1 (centres unmarked) [Compound 33, 4a-(3-ethoxyphenyl)octahydro-2H-benzo[b][1,4]oxazine hydrochloride] | 76.4 | – |
| COc1ccc(C23CCCCC2OCCN3)c(Cl)c1 (centres unmarked) [Compound 34, 4a-(2-chloro-4-methoxyphenyl)octahydro-2H-benzo[b][1,4]oxazine hydrochloride] | 48.6 | – |
| Fc1cccc(Cl)c1C12CCCCC1OCCN2 (centres unmarked) [Compound 36, 4a-(2-chloro-6-fluorophenyl)octahydro-2H-benzo[b][1,4]oxazine hydrochloride] | 42.5 | – |
| Cc1cscc1[C@]12CCCC[C@H]1OCCN2 [Compound 40, (4aR,8aR)-4a-(4-methyl-3-thiophenyl)octahydro-2H-benzo[b][1,4]oxazine hydrochloride] | 89.3 | – |
| Clc1ccccc1[C@]12CCCC[C@H]1OCCN2 [Compound 43, (4aR,8aR)-4a-(2-chlorophenyl)octahydro-2H-benzo[b][1,4]oxazine hydrochloride] | – | behavior during observation (mice): no obvious abnormalities; also recorded: No abnormal |
